Measured values taken from patent publication US10202351B2, “Pyrazolyl derivatives as pest control agents” (BAYER ANIMAL HEALTH GMBH, priority 2015, dated 2019).

Tested on: Ctenocephalides felis
Assay: Ctenocephalides felis oral test
Type: in vivo
Conditions: application rate 100 ppm in citrated cattle blood, kill after 2 days
From the text: Solvent: dimethyl sulfoxide […] Dilution with citrated cattle blood gives the desired concentration. About 20 unfed adult cat fleas (Ctenocephalides felis) are placed into a chamber which is closed at the top and bottom with gauze. A metal cylinder whose bottom end is closed with parafilm is placed onto the chamber. The cylinder contains the blood/active ingredient formulation, which can be imbibed by the fleas through the parafilm membrane.
In the case of `Cc1cc(C(F)(C(F)(F)F)C(F)(F)F)cc(C(F)(F)F)c1-n1cc(-c2cc(NC(=O)c3ccc(C#N)nc3)ccc2F)cn1` [Example 2-3], the efficacy is reported as 100%. With `Cc1cc(C(F)(C(F)(F)F)C(F)(F)F)cc(C(F)(F)F)c1-n1cc(-c2cc(NC(=O)c3ccc(Cl)nc3)ccc2F)cn1` [Example 2-4] the efficacy was 95%. Work on `O=C(Nc1ccc(F)c(-c2cnn(-c3c(Br)cc(C(F)(C(F)(F)F)C(F)(F)F)cc3C(F)(F)F)c2)c1)c1ccncc1` [Example 2-13] yielded an efficacy of 100%. Work on `Cc1cc(C(F)(C(F)(F)F)C(F)(F)F)cc(C)c1-n1cc(-c2ccc(Cl)c(NC(=O)c3ccncc3)c2)cn1` [Example 2] yielded an efficacy of 100%.

Tested on: Boophilus microplus
Assay: Boophilus microplus injection test
Type: in vivo
Conditions: application rate 20 μg/animal, after 7 days, laying of fertile eggs
Method: Solvent: dimethyl sulfoxide […] The animals are transferred into dishes and kept in a climate-controlled room. Efficacy is assessed after 7 days by laying of fertile eggs. Eggs which are not visibly fertile are stored in a climate-controlled cabinet until the larvae hatch after about 42 days.
With `Cc1cc(C(F)(C(F)(F)F)C(F)(F)F)cc(C(F)(F)F)c1-n1cc(-c2cc(NC(=O)c3ccc(C#N)nc3)ccc2F)cn1` [Example 2-3] the efficacy was 100%. Compound `Cc1cc(C(F)(C(F)(F)F)C(F)(F)F)cc(C(F)(F)F)c1-n1cc(-c2cc(NC(=O)c3ccc(Cl)nc3)ccc2F)cn1` [Example 2-4] has an efficacy of 100%. With `O=C(Nc1ccc(F)c(-c2cnn(-c3c(Br)cc(C(F)(C(F)(F)F)C(F)(F)F)cc3C(F)(F)F)c2)c1)c1ccncc1` [Example 2-13] the efficacy was 100%. `Cc1cc(C(F)(C(F)(F)F)C(F)(F)F)cc(C)c1-n1cc(-c2ccc(Cl)c(NC(=O)c3ccncc3)c2)cn1` [Example 2] gave an efficacy of 100%.

Tested on: Meloidogyne incognita
Assay: Meloidogyne incognita test
Type: in vivo
Conditions: application rate 20 ppm, nematicidal efficacy by formation of galls on lettuce after 14 days
Method: Solvent: 125.0 parts by weight of acetone
To produce a suitable active ingredient formulation, 1 part by weight of active ingredient is mixed with the stated amount of solvent and the concentrate is diluted to the desired concentration with water.
Vessels are filled with sand, active ingredient solution, an egg/larvae suspension of the southern root-knot nematode (Meloidogyne incognita) and lettuce seeds. The lettuce seeds germinate and the plants develop. The galls develop on the roots.
After 14 days, the nematicidal efficacy in % is determined by the formation of galls. 100% means that no galls were found; 0% means that the number of galls on the treated plants corresponds to the untreated control.
With `Cc1cc(C(F)(C(F)(F)F)C(F)(F)F)cc(C(F)(F)F)c1-n1cc(-c2cc(NC(=O)c3ccc(C#N)nc3)ccc2F)cn1` [Example 2-3] the efficacy was 90%. With `Cc1cc(C(F)(C(F)(F)F)C(F)(F)F)cc(C(F)(F)F)c1-n1cc(-c2cc(NC(=O)c3ccc(Cl)nc3)ccc2F)cn1` [Example 2-4] the efficacy was 90%.

Tested on: Ctenocephalides felis
Assay: Ctenocephalides felis in vitro contact test with adult cat fleas
Type: in vivo
Conditions: application rate 5 μg/cm^2 (500 g/ha), after 48 h, dead or moribund fleas
Method: After the solvent has evaporated off, the tubes are populated with 5-10 adult cat fleas (Ctenocephalides felis), sealed with a perforated plastic lid and incubated in a horizontal position at room temperature and ambient humidity. After 48 h, efficacy is determined. To this end, the tubes are stood upright and the fleas are knocked to the base of the tube. Fleas which remain motionless at the base or move in an uncoordinated manner are considered to be dead or moribund.
Compound `O=C(Nc1ccc(F)c(-c2cnn(-c3c(Br)cc(C(F)(C(F)(F)F)C(F)(F)F)cc3C(F)(F)F)c2)c1)c1ccncc1` [Example 2-13] has an efficacy of 80%. `Cc1cc(C(F)(C(F)(F)F)C(F)(F)F)cc(C)c1-n1cc(-c2ccc(Cl)c(NC(=O)c3ccncc3)c2)cn1` [Example 2] showed an efficacy of 100%.

Tested on: not listed separately
Assay: logP determination by HPLC on reversed-phase column (EEC Directive 79/831 Annex V.A8)
Type: physicochemical
Conditions: Table 1; HPLC C18, acetonitrile/water with formic acid
For `Cc1cc(C(F)(C(F)(F)F)C(F)(F)F)cc(C)c1-n1cc(-c2ccc(Cl)c(NC(=O)c3ccncc3)c2)cn1` [Example 2], the lgP was “lgP 4.41”.

Tested on: Musca domestica
Assay: Musca domestica test
Type: in vivo
Conditions: application rate 100 ppm, adult houseflies, kill after 2 days
Outline: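 Compound dissolved in DMSO (10 mg per 0.5 ml), diluted with water to test concentration and applied to a sugar-solution sponge. Vessels held 10 adult houseflies; percent kill scored after 2 days (100% = all dead).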
With `Cc1cc(C(F)(C(F)(F)F)C(F)(F)F)cc(C(F)(F)F)c1-n1cc(-c2cc(NC(=O)c3ccc(C#N)nc3)ccc2F)cn1` [Example 2-3] the efficacy was 100%. `O=C(Nc1ccc(F)c(-c2cnn(-c3c(Br)cc(C(F)(C(F)(F)F)C(F)(F)F)cc3C(F)(F)F)c2)c1)c1ccncc1` [Example 2-13] gave an efficacy of 100%. With `Cc1cc(C(F)(C(F)(F)F)C(F)(F)F)cc(C)c1-n1cc(-c2ccc(Cl)c(NC(=O)c3ccncc3)c2)cn1` [Example 2] the efficacy was 100%.

Tested on: Rhipicephalus sanguineus
Assay: Rhipicephalus sanguineus in vitro contact test with adult brown dog ticks
Type: in vivo
Conditions: application rate 5 μg/cm^2 (500 g/ha), after 48 h, dead or moribund ticks
Method: After the solvent has evaporated off, the tubes are populated with 5-10 adult dog ticks (Rhipicephalus sanguineus), sealed with a perforated plastic lid and incubated in a horizontal position in the dark at room temperature and ambient humidity. After 48 h, efficacy is determined. To this end, the ticks are knocked to the base of the tube and incubated on a hotplate at 45-50° C. for not more than 5 min. Ticks which remain motionless on the base or move in such an uncoordinated manner that they are unable to deliberately avoid the heat by climbing upwards are considered to be dead or moribund.
Compound `O=C(Nc1ccc(F)c(-c2cnn(-c3c(Br)cc(C(F)(C(F)(F)F)C(F)(F)F)cc3C(F)(F)F)c2)c1)c1ccncc1` [Example 2-13] has an efficacy of 80%. `Cc1cc(C(F)(C(F)(F)F)C(F)(F)F)cc(C)c1-n1cc(-c2ccc(Cl)c(NC(=O)c3ccncc3)c2)cn1` [Example 2] gave an efficacy of 100%.

Tested on: Tetranychus urticae
Assay: Tetranychus urticae spray test, OP-resistant
Type: in vivo
Conditions: application rate 100 g/ha, all stages on bean leaf discs, after 6 days
Method: Solvent: 78.0 parts by weight of acetone • • 1.5 parts by weight of dimethylformamide Emulsifier: alkylaryl polyglycol ether […] To produce further test concentrations, the formulation is diluted with emulsifier-containing water. Discs of bean leaves (Phaseolus vulgaris) infested with all stages of the greenhouse red spider mite (Tetranychus urticae) are sprayed with an active ingredient formulation of the desired concentration.
Work on `Cc1cc(C(F)(C(F)(F)F)C(F)(F)F)cc(C(F)(F)F)c1-n1cc(-c2cc(NC(=O)c3ccc(C#N)nc3)ccc2F)cn1` [Example 2-3] yielded an efficacy of 90%. With `O=C(Nc1ccc(F)c(-c2cnn(-c3c(Br)cc(C(F)(C(F)(F)F)C(F)(F)F)cc3C(F)(F)F)c2)c1)c1ccncc1` [Example 2-13] the efficacy was 90%. For `Cc1cc(C(F)(C(F)(F)F)C(F)(F)F)cc(C)c1-n1cc(-c2ccc(Cl)c(NC(=O)c3ccncc3)c2)cn1` [Example 2], the efficacy was 100%.

Same assay, conditions: application rate 500 g/ha, all stages on bean leaf discs, after 6 days
In the case of `Cc1cc(C(F)(C(F)(F)F)C(F)(F)F)cc(C)c1-n1cc(-c2ccc(Cl)c(NC(=O)c3ccncc3)c2)cn1` [Example 2], the efficacy is reported as 100%.

Tested on: Lucilia cuprina
Assay: Lucilia cuprina test
Type: in vivo
Conditions: application rate 100 ppm, L1 larvae, kill after 2 days
Outline: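 About 20 L1 larvae were placed in vessels of minced horsemeat containing compound, formulated in dimethyl sulfoxide and diluted with water to the test concentration. Kill (%) was scored after 2 days; 100% means all larvae dead, 0% none.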
`Cc1cc(C(F)(C(F)(F)F)C(F)(F)F)cc(C(F)(F)F)c1-n1cc(-c2cc(NC(=O)c3ccc(C#N)nc3)ccc2F)cn1` [Example 2-3] showed an efficacy of 100%. Compound `Cc1cc(C(F)(C(F)(F)F)C(F)(F)F)cc(C(F)(F)F)c1-n1cc(-c2cc(NC(=O)c3ccc(Cl)nc3)ccc2F)cn1` [Example 2-4] has an efficacy of 90%. Compound `O=C(Nc1ccc(F)c(-c2cnn(-c3c(Br)cc(C(F)(C(F)(F)F)C(F)(F)F)cc3C(F)(F)F)c2)c1)c1ccncc1` [Example 2-13] has an efficacy of 100%. `Cc1cc(C(F)(C(F)(F)F)C(F)(F)F)cc(C)c1-n1cc(-c2ccc(Cl)c(NC(=O)c3ccncc3)c2)cn1` [Example 2] gave an efficacy of 100%.

Tested on: Spodoptera frugiperda
Assay: Spodoptera frugiperda spray test
Type: in vivo
Conditions: application rate 100 g/ha, caterpillars on maize leaf discs, after 7 days
Method: (§1) Solvent: 78.0 parts by weight of acetone • • 1.5 parts by weight of dimethylformamide Emulsifier: alkylaryl polyglycol ether […] To produce further test concentrations, the formulation is diluted with emulsifier-containing water. Leaf discs of maize (Zea mays) are sprayed with an active compound formulation of the desired concentration and, after drying, populated with caterpillars of the armyworm (Spodoptera frugiperda).
For `Cc1cc(C(F)(C(F)(F)F)C(F)(F)F)cc(C(F)(F)F)c1-n1cc(-c2cc(NC(=O)c3ccc(C#N)nc3)ccc2F)cn1` [Example 2-3], the efficacy was 100%. Compound `Cc1cc(C(F)(C(F)(F)F)C(F)(F)F)cc(C(F)(F)F)c1-n1cc(-c2cc(NC(=O)c3ccc(Cl)nc3)ccc2F)cn1` [Example 2-4] has an efficacy of 100%. In the case of `O=C(Nc1ccc(F)c(-c2cnn(-c3c(Br)cc(C(F)(C(F)(F)F)C(F)(F)F)cc3C(F)(F)F)c2)c1)c1ccncc1` [Example 2-13], the efficacy is reported as 100%. For `Cc1cc(C(F)(C(F)(F)F)C(F)(F)F)cc(C)c1-n1cc(-c2ccc(Cl)c(NC(=O)c3ccncc3)c2)cn1` [Example 2], the efficacy was 100%.

Same assay, conditions: application rate 500 g/ha, caterpillars on maize leaf discs, after 7 days
`Cc1cc(C(F)(C(F)(F)F)C(F)(F)F)cc(C)c1-n1cc(-c2ccc(Cl)c(NC(=O)c3ccncc3)c2)cn1` [Example 2] gave an efficacy of 100%.

Tested on: Phaedon cochleariae
Assay: Phaedon cochleariae spray test
Type: in vivo
Conditions: application rate 100 g/ha, larvae on Chinese cabbage leaf discs, after 7 days
Method: as §1, with “Discs” for “Leaf discs”, “Chinese cabbage leaves (Brassica pekinensis)” for “maize (Zea mays)”, “ingredient” for “compound”, “larvae” for “caterpillars”, “mustard beetle (Phaedon cochleariae).” for “armyworm (Spodoptera frugiperda).”
`Cc1cc(C(F)(C(F)(F)F)C(F)(F)F)cc(C(F)(F)F)c1-n1cc(-c2cc(NC(=O)c3ccc(C#N)nc3)ccc2F)cn1` [Example 2-3] gave an efficacy of 100%. In the case of `Cc1cc(C(F)(C(F)(F)F)C(F)(F)F)cc(C(F)(F)F)c1-n1cc(-c2cc(NC(=O)c3ccc(Cl)nc3)ccc2F)cn1` [Example 2-4], the efficacy is reported as 100%. `O=C(Nc1ccc(F)c(-c2cnn(-c3c(Br)cc(C(F)(C(F)(F)F)C(F)(F)F)cc3C(F)(F)F)c2)c1)c1ccncc1` [Example 2-13] showed an efficacy of 100%.

Same assay, conditions: application rate 500 g/ha, larvae on Chinese cabbage leaf discs, after 7 days
`Cc1cc(C(F)(C(F)(F)F)C(F)(F)F)cc(C)c1-n1cc(-c2ccc(Cl)c(NC(=O)c3ccncc3)c2)cn1` [Example 2] gave an efficacy of 100%.

Tested on: cattle ticks (Boophilus microplus) Parkhurst strain, SP-resistant
Assay: Boophilus microplus dip test
Type: in vivo
Conditions: application rate 100 ppm, after 7 days, laying of fertile eggs
Method: Test animals: cattle ticks (Boophilus microplus) Parkhurst strain, SP-resistant
Solvent: dimethyl sulfoxide
10 mg of active ingredient are dissolved in 0.5 ml of dimethyl sulfoxide. To produce a suitable formulation, the active ingredient solution is diluted with water to the concentration desired in each case.
This active ingredient formulation is pipetted into tubes. 8-10 engorged adult female cattle ticks (Boophilus microplus) are transferred into a further tube with holes. The tube is immersed into the active ingredient formulation, and all the ticks are completely wetted. After the liquid has run out, the ticks are transferred on filter disks into plastic dishes and stored in a climate-controlled room.
Efficacy is assessed after 7 days by laying of fertile eggs. Eggs which are not visibly fertile are stored in a climate-controlled cabinet until the larvae hatch after about 42 days. An efficacy of 100% means that none of the ticks has laid any fertile eggs; 0% means that all the eggs are fertile.
Compound `O=C(Nc1ccc(F)c(-c2cnn(-c3c(Br)cc(C(F)(C(F)(F)F)C(F)(F)F)cc3C(F)(F)F)c2)c1)c1ccncc1` [Example 2-13] has an efficacy of 100%. Compound `Cc1cc(C(F)(C(F)(F)F)C(F)(F)F)cc(C)c1-n1cc(-c2ccc(Cl)c(NC(=O)c3ccncc3)c2)cn1` [Example 2] has an efficacy of 100%.
